This is an account of results in article PMC9032718, “Eltrombopag as an Allosteric Inhibitor of the METTL3-14 Complex Affecting the m^6A Methylation of RNA in Acute Myeloid Leukemia Cells” (Pharmaceuticals, 2022).

Details of data set [1]: method as in PMID 30305280, PMID 30002802. As to conditions: cited from earlier work.
The next data set deals with MV4-11 cells. The data set is described as follows: Anti-proliferative assay (EZ-cytox), MV4-11. In kind it is cell-based. As to conditions: Homo sapiens, MV4-11, 72 h. As to the method:
(§1) The MOLM-13, MOLM-14, HL60, MV4-11, and THP-1 cells were seeded in white 96-well clear bottomed plates with 100 μL of medium (5000 cells/well). The plated cells were treated with serially diluted compounds and incubated for 72 h at 37 °C. After incubation, 10 μL of EZ-cytox kit reagent from the EZ-cytox cell viability assay kit (DaeiLab, Seoul, Korea) was added to each well and then incubated for 3 h at 37 °C. The absorbance of metabolically active cells was measured at a wavelength of 450 nm using a Victor multilabel reader (PerkinElmer). The GI50 values were calculated by nonlinear regression analysis using OriginPro 9.1 software (OriginLab).

The target in a further data set is T1, PRMT1 (Homo sapiens, UniProt Q99873).
T1 construct: purchased Reaction Biology (Malvern, PA, USA), contract assay
The data set is described as follows: Methyltransferase selectivity panel (MT HotSpot radioisotope assay), PRMT1. In kind it is biochemical. As to conditions: 10 μM eltrombopag. An excerpt:
The selectivity profile of eltrombopag was investigated by testing the level of inhibition in a methyltransferase panel.

On the set-up of data set [2]: method as in PMID 34225039. The note with it: cited from earlier work.
In another data set the test system is MOLM-14 cells. The data set is described as follows: Anti-proliferative assay (EZ-cytox), MOLM-14. In kind it is cell-based. As to conditions: Homo sapiens, MOLM-14, 72 h. As to the method:
as §1

In the next data set the target is T2, SETD2 (Homo sapiens, UniProt Q9BYW2).
T2 construct: purchased Reaction Biology (Malvern, PA, USA), contract assay
T2 sequence (Q9BYW2 whole entry): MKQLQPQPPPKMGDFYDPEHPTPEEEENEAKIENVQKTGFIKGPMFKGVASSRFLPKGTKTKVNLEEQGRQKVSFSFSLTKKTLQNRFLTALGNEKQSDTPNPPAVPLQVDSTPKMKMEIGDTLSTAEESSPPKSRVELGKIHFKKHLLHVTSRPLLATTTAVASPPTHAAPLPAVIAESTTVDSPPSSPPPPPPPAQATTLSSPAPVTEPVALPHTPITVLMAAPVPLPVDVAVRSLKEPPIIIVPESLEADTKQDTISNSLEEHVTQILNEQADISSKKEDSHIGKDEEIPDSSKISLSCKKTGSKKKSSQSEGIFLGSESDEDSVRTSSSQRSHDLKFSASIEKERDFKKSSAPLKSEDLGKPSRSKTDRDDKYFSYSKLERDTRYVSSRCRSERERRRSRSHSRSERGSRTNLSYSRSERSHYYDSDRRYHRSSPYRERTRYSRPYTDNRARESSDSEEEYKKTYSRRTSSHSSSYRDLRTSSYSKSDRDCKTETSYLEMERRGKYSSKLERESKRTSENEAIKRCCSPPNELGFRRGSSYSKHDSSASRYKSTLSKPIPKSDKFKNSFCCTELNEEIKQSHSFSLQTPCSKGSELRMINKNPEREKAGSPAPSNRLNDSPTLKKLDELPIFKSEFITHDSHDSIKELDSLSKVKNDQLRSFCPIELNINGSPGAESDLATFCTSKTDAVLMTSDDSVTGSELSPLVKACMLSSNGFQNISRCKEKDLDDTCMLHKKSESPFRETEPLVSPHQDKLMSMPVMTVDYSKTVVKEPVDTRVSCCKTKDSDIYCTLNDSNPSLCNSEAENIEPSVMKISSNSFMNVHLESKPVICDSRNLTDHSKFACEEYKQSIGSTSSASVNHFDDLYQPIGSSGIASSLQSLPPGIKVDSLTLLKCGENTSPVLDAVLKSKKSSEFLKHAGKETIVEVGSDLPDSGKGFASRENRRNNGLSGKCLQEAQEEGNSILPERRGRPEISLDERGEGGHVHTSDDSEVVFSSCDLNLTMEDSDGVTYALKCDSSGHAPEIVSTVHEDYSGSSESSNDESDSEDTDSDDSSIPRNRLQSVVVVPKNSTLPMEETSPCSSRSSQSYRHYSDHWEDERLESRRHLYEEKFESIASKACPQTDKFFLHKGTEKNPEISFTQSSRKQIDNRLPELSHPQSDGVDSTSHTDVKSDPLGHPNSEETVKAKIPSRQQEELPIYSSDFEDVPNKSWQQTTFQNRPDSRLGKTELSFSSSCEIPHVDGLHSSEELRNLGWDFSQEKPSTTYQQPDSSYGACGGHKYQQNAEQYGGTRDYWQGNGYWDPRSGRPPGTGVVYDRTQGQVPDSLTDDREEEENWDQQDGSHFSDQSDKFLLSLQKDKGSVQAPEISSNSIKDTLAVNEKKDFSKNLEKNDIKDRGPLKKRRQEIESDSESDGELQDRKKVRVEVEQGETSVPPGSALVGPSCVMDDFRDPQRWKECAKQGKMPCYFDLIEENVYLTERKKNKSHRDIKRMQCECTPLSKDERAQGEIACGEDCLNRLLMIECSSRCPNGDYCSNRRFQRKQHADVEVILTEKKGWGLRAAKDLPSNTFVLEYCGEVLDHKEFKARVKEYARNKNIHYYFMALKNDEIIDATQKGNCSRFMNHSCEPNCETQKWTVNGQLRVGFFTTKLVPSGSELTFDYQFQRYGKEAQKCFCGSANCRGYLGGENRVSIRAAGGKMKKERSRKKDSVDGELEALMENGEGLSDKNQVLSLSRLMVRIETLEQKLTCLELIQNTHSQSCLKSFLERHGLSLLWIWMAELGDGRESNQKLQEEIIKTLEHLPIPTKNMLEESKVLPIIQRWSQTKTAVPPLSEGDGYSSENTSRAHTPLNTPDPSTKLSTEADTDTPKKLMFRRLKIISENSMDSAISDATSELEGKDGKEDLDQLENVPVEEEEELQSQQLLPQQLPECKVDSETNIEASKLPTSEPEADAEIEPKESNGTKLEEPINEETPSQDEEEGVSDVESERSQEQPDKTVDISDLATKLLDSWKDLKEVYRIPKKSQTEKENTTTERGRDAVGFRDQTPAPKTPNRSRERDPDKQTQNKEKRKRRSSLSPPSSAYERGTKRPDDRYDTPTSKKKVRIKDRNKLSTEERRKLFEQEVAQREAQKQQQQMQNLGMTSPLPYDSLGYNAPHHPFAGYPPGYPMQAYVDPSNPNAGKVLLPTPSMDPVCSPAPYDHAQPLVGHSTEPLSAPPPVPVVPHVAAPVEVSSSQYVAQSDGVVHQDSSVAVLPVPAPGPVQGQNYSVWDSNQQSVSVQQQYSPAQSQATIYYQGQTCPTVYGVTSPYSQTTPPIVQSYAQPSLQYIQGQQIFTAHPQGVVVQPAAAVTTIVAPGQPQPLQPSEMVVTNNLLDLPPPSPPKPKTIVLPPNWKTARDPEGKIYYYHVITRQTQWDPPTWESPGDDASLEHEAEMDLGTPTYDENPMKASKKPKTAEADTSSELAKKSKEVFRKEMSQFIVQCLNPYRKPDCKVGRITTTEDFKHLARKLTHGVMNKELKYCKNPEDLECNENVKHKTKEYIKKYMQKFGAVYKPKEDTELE
The data set is described as follows: Methyltransferase selectivity panel (MT HotSpot radioisotope assay), SETD2. As to conditions: 10 μM eltrombopag. In kind it is biochemical. As to the method:
(§2) The selectivity profile of eltrombopag was investigated by testing the level of inhibition in a methyltransferase panel. The inhibition of 7 […] methyltransferase was tested at Reaction Biology (Malvern, PA, USA) using a gold standard radioisotope-based MT assay (MT HotSpot^TM) with 10 μM of eltrombopag in duplicate.

A further data set addresses T3, DOT1L (Homo sapiens, UniProt Q8TEK3).
T3 construct: purchased Reaction Biology (Malvern, PA, USA), contract assay
The data set is described as follows: Methyltransferase selectivity panel (MT HotSpot radioisotope assay), DOT1L. In kind it is biochemical. As to conditions: 10 μM eltrombopag, DOT1L. As to the method:
as §2

Another data set has as its target T4, METTL3-14 complex (Homo sapiens, UniProt Q86U44).
T4 construct: genes encoding the full-length and MTase domain of human METTL3; METTL3-14 FL: full length of METTL3-14; 10x His (thrombin-cleavable) (cleaved yes); made in house; host or cells: Trichoplusia ni (Hi5) cells co-infected with two baculoviruses (virus made in Sf9)
The data set is described as follows: Surface plasmon resonance binding to METTL3-14. As to conditions: SPR. As to the method: The interaction between eltrombopag and the METTL3-14 complex was explored using a Reichert […] instrument optical biosensor (Reichert Technologies, Depew, NY, USA) equipped with a carboxymethyl dextran sensor chip (part no. 13206066, Reichert Technologies). To activate the sensor chip, free carboxyl groups on the surface were modified by injecting a mixture of 0.1 M of 1-ethyl-3-(3-dimethylaminopropyl) carbodiimide hydrochloride and 0.05 M of N-hydroxysuccinimide at a flow rate of 10 μL/min to generate a reactive succinimide ester surface. […] The binding experiments were performed using a flow rate of 30 μL/min with an association time of 5 min and a dissociation time of 7 min. The regeneration of the surfaces was performed, when necessary, by 10 mM of NaOH. The Langmuir model of the Scrubber2 software was used to determine the equilibrium dissociation constant and kinetic dissociation and association constants.

Another data set has as its target T5, G9a (Homo sapiens, UniProt Q96KQ7).
T5 construct: purchased Reaction Biology (Malvern, PA, USA), contract assay
T5 sequence (Q96KQ7 1-1210): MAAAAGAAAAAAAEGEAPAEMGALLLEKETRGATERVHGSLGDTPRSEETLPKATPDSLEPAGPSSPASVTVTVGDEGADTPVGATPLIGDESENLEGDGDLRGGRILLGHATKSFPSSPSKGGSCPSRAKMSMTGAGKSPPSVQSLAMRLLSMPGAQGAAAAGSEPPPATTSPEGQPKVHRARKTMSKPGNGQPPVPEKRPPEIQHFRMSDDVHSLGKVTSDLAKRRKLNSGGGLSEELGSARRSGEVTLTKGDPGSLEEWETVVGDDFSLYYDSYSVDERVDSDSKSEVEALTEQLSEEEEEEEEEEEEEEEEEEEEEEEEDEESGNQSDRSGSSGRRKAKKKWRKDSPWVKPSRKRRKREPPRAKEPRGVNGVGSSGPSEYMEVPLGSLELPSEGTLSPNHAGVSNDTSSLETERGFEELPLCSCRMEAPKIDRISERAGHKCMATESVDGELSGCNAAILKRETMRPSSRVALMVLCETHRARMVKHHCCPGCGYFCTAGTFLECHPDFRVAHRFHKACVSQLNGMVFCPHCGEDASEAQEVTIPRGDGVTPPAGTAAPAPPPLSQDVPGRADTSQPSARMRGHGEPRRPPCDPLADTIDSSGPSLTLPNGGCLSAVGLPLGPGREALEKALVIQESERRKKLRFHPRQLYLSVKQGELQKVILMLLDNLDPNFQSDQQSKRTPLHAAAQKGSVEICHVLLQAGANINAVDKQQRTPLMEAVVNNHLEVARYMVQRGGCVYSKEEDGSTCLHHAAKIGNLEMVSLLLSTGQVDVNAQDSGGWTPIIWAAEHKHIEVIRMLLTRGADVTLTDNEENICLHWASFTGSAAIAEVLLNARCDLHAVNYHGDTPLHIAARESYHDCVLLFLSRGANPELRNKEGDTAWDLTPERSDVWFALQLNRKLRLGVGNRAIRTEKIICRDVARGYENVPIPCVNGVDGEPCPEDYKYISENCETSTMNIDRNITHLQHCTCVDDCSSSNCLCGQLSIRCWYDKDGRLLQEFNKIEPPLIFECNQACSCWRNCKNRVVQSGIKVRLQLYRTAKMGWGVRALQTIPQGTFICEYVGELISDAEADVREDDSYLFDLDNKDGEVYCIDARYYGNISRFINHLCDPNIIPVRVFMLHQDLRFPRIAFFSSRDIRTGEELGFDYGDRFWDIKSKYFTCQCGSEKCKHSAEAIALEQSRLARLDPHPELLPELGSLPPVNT
The data set is described as follows: Methyltransferase selectivity panel (MT HotSpot radioisotope assay), G9a. As to conditions: 10 μM eltrombopag. In kind it is biochemical. As to the method: as §2

For a further data set, the system named is HL60 cells. The data set is described as follows: Anti-proliferative assay (EZ-cytox), HL60. In kind it is cell-based. The note with it: Homo sapiens, HL-60, 72 h. As to the method:
as §1

Each structure is given as a SMILES string.

T4 sequence (Q86U44 whole entry, the tested form may be a part): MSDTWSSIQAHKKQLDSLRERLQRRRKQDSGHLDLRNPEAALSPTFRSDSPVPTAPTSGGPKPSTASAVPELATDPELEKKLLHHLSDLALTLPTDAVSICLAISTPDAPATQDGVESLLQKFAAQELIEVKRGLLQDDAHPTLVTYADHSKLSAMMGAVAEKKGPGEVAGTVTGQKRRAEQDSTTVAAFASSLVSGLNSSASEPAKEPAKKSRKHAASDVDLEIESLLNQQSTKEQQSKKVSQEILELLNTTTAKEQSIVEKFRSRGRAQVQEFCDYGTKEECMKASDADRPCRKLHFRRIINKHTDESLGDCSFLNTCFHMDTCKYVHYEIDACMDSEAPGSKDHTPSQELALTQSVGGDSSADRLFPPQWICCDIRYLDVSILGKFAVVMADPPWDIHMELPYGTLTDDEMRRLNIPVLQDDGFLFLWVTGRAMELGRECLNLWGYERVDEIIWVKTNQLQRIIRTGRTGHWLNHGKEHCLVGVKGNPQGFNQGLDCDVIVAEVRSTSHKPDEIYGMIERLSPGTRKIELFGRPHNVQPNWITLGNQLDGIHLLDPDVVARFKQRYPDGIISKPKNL
T4 sequence (Q9HCE5 whole entry partner, the tested form may be a part): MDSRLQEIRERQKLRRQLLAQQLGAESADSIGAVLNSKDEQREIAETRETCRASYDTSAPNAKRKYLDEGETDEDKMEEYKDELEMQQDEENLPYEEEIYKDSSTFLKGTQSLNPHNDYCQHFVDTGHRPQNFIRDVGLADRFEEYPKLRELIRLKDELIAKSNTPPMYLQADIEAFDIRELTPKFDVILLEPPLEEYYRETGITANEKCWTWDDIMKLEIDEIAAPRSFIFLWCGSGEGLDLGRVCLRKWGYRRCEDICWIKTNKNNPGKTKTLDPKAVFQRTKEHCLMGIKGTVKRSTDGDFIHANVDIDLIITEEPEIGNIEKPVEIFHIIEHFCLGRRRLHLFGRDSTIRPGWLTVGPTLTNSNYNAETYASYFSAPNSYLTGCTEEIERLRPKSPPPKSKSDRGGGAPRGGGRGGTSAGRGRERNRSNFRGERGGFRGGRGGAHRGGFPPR
T3 sequence (Q8TEK3 whole entry): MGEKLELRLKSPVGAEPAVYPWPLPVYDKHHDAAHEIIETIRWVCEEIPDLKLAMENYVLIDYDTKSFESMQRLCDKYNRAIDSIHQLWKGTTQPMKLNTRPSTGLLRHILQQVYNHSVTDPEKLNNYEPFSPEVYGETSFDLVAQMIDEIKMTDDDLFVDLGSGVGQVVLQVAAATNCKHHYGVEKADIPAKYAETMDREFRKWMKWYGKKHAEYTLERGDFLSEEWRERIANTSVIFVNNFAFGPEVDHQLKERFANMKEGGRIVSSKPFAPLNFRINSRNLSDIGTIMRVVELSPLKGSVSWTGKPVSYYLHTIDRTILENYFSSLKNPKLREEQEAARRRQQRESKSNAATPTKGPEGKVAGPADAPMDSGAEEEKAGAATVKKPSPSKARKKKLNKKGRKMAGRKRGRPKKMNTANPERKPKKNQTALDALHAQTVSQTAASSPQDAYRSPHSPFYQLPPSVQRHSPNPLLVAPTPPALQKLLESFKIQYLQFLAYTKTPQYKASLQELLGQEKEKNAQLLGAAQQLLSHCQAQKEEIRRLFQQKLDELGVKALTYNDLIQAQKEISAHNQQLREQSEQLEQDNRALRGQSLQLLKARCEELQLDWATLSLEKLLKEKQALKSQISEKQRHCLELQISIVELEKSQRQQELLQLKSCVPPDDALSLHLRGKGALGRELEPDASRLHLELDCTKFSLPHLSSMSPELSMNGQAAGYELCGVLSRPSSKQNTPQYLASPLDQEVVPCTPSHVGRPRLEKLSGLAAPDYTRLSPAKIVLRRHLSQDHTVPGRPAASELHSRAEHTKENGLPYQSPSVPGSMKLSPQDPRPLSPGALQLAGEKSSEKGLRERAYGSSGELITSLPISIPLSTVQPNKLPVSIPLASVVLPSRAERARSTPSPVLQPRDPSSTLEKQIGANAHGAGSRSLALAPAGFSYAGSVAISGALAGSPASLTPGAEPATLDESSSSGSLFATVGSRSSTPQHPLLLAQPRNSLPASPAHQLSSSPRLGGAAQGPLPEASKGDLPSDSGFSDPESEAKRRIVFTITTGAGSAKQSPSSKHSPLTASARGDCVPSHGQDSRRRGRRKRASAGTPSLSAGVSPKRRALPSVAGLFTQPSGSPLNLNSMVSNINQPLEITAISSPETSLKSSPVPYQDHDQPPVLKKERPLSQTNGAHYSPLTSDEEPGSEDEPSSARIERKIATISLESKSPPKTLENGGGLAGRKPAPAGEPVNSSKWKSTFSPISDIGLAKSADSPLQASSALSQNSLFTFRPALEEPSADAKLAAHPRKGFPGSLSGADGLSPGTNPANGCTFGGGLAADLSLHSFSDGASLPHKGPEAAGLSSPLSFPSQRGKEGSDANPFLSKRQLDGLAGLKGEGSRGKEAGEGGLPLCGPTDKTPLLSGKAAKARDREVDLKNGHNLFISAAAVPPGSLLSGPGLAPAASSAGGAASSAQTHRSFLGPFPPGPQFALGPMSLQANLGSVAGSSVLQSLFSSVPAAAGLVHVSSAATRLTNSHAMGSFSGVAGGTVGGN

`CC1=NN(c2ccc(C)c(C)c2)C(=O)/C1=N\Nc1cccc(-c2cccc(C(=O)O)c2)c1O` [Eltrombopag]: in data set [1] (combination with azacitidine compared with azacitidine alone), the “safety in clinical studies, combination with azacitidine” value is “increased progression to acute myeloid leukemia”. Further, the “safety in clinical studies, monotherapy” value in data set [1] (monotherapy) was “didn’t show any safety concerns”. Besides, the GI50 in the data set with MV4-11 cells is 14.3 ± 0.1 µM; in the data set with MOLM-14 cells, 10.4 ± 0.7 µM; with HL60 cells it was 12.9 ± 0.9 µM. Further, the remaining activity at 10 µM worked out at 96.1 ± 3.9% on PRMT1, 97.3 ± 4.1% at SETD2, 90 ± 2.8% at DOT1L and 99 ± 3.3% at G9a. For the same compound, the water solubility entry in [2] was “low”. In addition, the “Ka (kinetic association constant)” value on METTL3-14 complex was 492(4). In addition, on METTL3-14 complex (Langmuir model, read-out: KD (equilibrium dissociation constant)), the dissociation constant (Kd) is 13.2 µM.
